Tests used:
Type in all cases: cell-based
[1] = molecular target: T1, EGFR (T790M/L858R), H1975 cell (Homo sapiens, UniProt P00533, L858R/T790M); experiment: ELISA assay of EGFR phosphorylation in H1975 cells; conditions: for IC50: EGFR pY1068 sandwich ELISA, 2 hours compound in serum-free medium; for Selectivity (WT/T790M): ratio of IC50 A431 cell (WT) to IC50 H1975 cell (T790M/L858R)
T1 construct: endogenous in cells; host or cells: H1975
Procedure: (§1) H1975 and A431 cells were seeded onto each well of a 96-well plate at a density of 4×10^4 cells per well. After 24 hours of growth in serum-containing media, cells were treated with test compound in serum-free medium for 2 hours. A431 cells were stimulated with 30 ng/mL EGF during the last 15 minutes of compound treatment. Cells were washed with ice cold PBS before extraction with 100 μl per well cell lysis buffer. Phosphorylation of EGFR was measured using a sandwich ELISA assay with the pair of phospho-specific EGFR (pY1068) and total EGFR antibodies.

EGFR (WT), A431 cell = molecular target: T2, EGFR (WT), A431 cell (Homo sapiens, UniProt P00533); experiment: ELISA assay of EGFR phosphorylation in A431 cells; conditions: EGFR pY1068 sandwich ELISA, 2 hours compound, 30 ng/mL EGF last 15 minutes
T2 construct: endogenous in cells; host or cells: A431
T2 sequence (P00533 25-1210): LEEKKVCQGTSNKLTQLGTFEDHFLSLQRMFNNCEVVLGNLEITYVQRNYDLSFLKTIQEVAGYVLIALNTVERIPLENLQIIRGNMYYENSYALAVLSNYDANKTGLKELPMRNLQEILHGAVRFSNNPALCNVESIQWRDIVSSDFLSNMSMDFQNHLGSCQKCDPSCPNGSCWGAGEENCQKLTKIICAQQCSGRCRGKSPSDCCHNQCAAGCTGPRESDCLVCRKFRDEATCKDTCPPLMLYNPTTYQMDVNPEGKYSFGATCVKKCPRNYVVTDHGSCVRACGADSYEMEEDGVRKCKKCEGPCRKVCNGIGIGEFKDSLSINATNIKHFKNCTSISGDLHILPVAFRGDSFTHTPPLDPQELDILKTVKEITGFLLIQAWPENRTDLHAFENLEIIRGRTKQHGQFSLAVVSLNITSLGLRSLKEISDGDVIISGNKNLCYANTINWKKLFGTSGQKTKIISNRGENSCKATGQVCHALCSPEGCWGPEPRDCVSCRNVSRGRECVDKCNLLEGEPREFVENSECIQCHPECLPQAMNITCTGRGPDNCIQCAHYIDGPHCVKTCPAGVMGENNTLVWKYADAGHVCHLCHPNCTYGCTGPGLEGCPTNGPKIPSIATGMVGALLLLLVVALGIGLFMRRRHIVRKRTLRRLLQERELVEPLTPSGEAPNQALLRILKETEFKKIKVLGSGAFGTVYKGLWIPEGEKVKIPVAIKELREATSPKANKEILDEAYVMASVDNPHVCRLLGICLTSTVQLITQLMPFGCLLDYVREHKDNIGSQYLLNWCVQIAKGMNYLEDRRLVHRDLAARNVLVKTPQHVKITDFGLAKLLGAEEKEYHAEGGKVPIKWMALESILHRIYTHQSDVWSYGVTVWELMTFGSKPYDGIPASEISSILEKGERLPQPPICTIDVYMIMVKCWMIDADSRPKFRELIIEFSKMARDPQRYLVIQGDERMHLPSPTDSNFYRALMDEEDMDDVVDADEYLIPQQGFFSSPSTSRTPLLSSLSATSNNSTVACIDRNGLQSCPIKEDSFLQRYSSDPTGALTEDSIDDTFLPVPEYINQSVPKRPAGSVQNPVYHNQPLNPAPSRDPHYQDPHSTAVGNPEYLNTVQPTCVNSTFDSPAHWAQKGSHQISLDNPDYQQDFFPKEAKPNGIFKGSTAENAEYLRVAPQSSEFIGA
Procedure: as §1

H1975 cells = experiment: H1975 cell viability assay (cytotoxicity, xCelligence RTCA); conditions: 3 days
Procedure: (§2) All cell lines were obtained from the American Type Culture Collection and were maintained at 37° C. with 5% CO2, in media supplemented with 10% fetal bovine serum and 1% L-glutamine-penicillin-streptomycin. H1975, HCC827 and A549 cells were cultured with RPMI 1640 media. A431 and Hela cells were maintained in Dulbecco's Modification of Eagle's Medium. EGF (R&D), EGF inhibitors were resuspended and stored according to the manufacturers' instructions.
(§3) Cells were seeded in 96-well E-Plate devices, and attachment, spreading, and proliferation were monitored using the xCelligence RTCA system. After 20 h of RTCA profiling, the cells were treated with the indicated compounds prediluted in growth media to a final maximal DMSO concentration of 0.1%, and the responses were measured at 30-min intervals for 3 days. For each cell type the optimal cell concentration was chosen based on their respective proliferation pattern.

A549 cells = experiment: A549 cell viability assay (cytotoxicity, xCelligence RTCA); conditions: Homo sapiens, 72 h, 3 days
Procedure: as §2, §3

HeLa cells = experiment: HeLa cell viability assay (cytotoxicity, xCelligence RTCA); conditions: Homo sapiens, 72 h, 3 days
Procedure: as §2, §3

EGFR in H1975 cells = experiment: H1975 EGF stimulation assay (impedance, xCelligence RTCA); conditions: Homo sapiens, NCI-H1975, 40 min pretreatment, EGF 30 ng/mL
Procedure: as §2
(§4) Impedance measurements were taken using the xCelligence RTCA system (Roche Applied Science) instrument using the E-plates 96-well device from the same company. Cells were trypsinized and seeded on a 96-well E-plate at a density of 15000 cells per well in a volume of 0.1 ml. Cells were allowed to attach and proliferate overnight. Prior to compound treatment, H1975 cells were serum starved in RPMI-1640 for a total of 4 h. Following serum starvation, the cells were pretreated with compounds or vehicle for 40 min and then stimulated with EGF at 30 ng/mL. Throughout the experimental process, the cells were continually monitored, and the changes in impedance were acquired with the xCelligence RTCA system. After EGF treatment, data acquisition was done every minute for up to 2 h. For each cell type the optimal cell concentration was chosen based on their respective proliferation pattern.

EGFR in A431 cells = experiment: A431 EGF stimulation assay (impedance, xCelligence RTCA); conditions: Homo sapiens, A-431
Procedure: as §2, with “H1975, HCC827 and A549 cells were cultured with RPMI 1640 media.” left out
as §4, with “Prior to compound treatment, H1975 cells were serum starved in RPMI-1640 for a total of 4 h.” left out

T1 sequence (P00533 25-1210 T790M/L858R): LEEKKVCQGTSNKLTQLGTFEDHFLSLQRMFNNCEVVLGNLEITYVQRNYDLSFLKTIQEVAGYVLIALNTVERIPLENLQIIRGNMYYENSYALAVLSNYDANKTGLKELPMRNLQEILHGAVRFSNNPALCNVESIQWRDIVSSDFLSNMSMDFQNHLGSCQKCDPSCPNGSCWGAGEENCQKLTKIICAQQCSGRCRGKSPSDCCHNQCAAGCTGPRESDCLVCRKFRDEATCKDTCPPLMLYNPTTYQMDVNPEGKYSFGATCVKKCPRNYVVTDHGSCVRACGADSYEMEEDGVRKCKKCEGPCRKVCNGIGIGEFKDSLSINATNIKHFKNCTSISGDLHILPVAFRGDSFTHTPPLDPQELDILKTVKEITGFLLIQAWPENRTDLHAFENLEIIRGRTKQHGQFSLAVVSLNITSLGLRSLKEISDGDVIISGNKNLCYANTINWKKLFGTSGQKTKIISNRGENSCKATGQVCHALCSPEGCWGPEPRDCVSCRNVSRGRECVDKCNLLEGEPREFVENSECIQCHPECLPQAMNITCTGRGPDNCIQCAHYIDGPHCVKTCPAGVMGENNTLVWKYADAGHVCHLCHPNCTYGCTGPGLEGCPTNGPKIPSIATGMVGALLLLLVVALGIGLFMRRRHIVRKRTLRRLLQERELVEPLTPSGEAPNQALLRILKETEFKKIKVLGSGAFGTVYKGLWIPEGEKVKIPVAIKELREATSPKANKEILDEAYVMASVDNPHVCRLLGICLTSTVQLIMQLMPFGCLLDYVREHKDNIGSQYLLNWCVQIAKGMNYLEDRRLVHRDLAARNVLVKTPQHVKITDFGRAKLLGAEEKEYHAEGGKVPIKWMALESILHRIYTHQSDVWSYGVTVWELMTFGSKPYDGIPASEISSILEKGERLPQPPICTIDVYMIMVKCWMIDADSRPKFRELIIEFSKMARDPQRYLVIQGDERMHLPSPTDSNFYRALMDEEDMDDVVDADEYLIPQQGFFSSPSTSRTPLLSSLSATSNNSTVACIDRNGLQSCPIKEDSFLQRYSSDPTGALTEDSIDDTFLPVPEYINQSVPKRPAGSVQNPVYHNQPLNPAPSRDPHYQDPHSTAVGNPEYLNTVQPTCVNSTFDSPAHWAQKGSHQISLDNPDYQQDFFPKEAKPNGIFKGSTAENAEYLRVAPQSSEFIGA

Row | Compound | IC50 [1] | Selectivity (WT/T790M) [1] | IC50 (EGFR (WT), A431 cell) | H1975 cell viability assay (under head IC50 (uM), results in words) (H1975 cells) | IC50 (A549 cells) | IC50 (HeLa cells) | IC50 (EGFR in H1975 cells) | IC50 (EGFR in A431 cells)
1 | C=CC(=O)Nc1cccc(C(F)(F)c2nc(Nc3ccc(N4CCN(C)CC4)nc3)ncc2F)c1 [Compound 33] | 0.099 µM | 72.6 | 7.17 µM | – | – | – | – | –
2 | C=CC(=O)Nc1cccc(C(F)(F)c2nc(Nc3ccc(N4CCN(C)CC4)cc3)nc3[nH]cnc23)c1 [Compound 13a, N-(3-(difluoro(2-(4-(4-methylpiperazin-1-yl)phenylamino)-9H-purin-6-yl)methyl)phenyl)acrylamide] | 0.17 µM | 82 | 13.7 µM | Active | > 20 µM | > 2.2 µM | 1.7 µM | 2.4 µM
3 | C=CC(=O)Nc1cccc(C(F)(F)c2nc(Nc3ccc(N4CCN(C)CC4)cc3)ncc2C)c1 [Compound 37] | 0.106 µM | 105 | 11.1 µM | – | – | – | – | –
4 | C=CC(=O)Nc1cccc(C(F)(F)c2nc(Nc3ccc(N4CCN(C)CC4)c(F)c3)nc3[nH]ccc23)c1 [Compound 28c, N-(3-(difluoro(2-(3-fluoro-4-(4-methylpiperazin-1-yl)phenylamino)-7H-pyrrolo[2,3-d]pyrimidin-4-yl)methyl)phenyl)acrylamide] | 0.08 µM | 100 | 8.05 µM | – | – | – | – | –
5 | C=CC(=O)Nc1cccc(C(F)(F)c2nc(Nc3ccc(N4CCN(CC)CC4)cc3)ncc2F)c1 [Compound 39] | 0.041 µM | 17.3 | 0.71 µM | – | – | – | – | –
6 | C=CC(=O)Nc1cccc(C(F)(F)c2nc(Nc3ccc(N4CCN(C)CC4)cc3)ncc2F)c1 [Compound 19, N-(3-(difluoro(5-fluoro-2-(4-(4-methylpiperazin-1-yl)phenylamino)pyrimidin-4-yl)methyl)phenyl)acrylamide] | 0.029 µM | 85 | 2.46 µM | Active | > 6.7 µM | > 6.7 µM | 1.1 µM | 0.97 µM
7 | C=CC(=O)Nc1cccc(C(F)(F)c2nc(Nc3ccc(N4CCN(C)CC4)cc3)ncc2Cl)c1 [Compound 38] | 0.341 µM | 11.2 | 3.81 µM | – | – | – | – | –
8 | C=CC(=O)Nc1cccc(C(F)(F)c2nc(Nc3ccc(N4CCN(C)CC4)cc3OC)ncc2F)c1 [Compound 32] | 1.3 µM | >15.4 | > 20 µM | – | – | – | – | –
9 | C=CC(=O)Nc1cccc(Oc2nc(Nc3ccc(N4CCN(C)CC4)cc3OC)ncc2Cl)c1 [WZ4002, reference compound] | – | – | – | Active | > 20 µM | > 6.7 µM | 1.1 µM | 0.817 µM
10 | C=CC(=O)Nc1cccc(C(F)(F)c2nc(Nc3ccc(N4CCN(C)CC4)nc3)ncc2OC)c1 [Compound 31] | 0.03 µM | >657 | > 20 µM | – | – | – | – | –
11 | C=CC(=O)Nc1cccc(C(F)(F)c2nc(Nc3ccc(N4CCN(C)CC4)cc3OC)nc3[nH]ccc23)c1 [Compound 28d, N-(3-(difluoro(2-(2-methoxy-4-(4-methylpiperazin-1-yl)phenylamino)-7H-pyrrolo[2,3-d]pyrimidin-4-yl)methyl)phenyl)acrylamide] | 0.158 µM | >127 | > 20 µM | – | – | – | – | –
12 | C=CC(=O)Nc1cccc(C(F)(F)c2nc(Nc3ccc(N4CCN(C)CC4)cc3)nc3[nH]ccc23)c1 [Compound 28a, N-(3-(difluoro(2-(4-(4-methylpiperazin-1-yl)phenylamino)-7H-pyrrolo[2,3-d]pyrimidin-4-yl)methyl)phenyl)acrylamide] | 0.026 µM | 107 | 2.73 µM | – | – | – | – | –
13 | C/C=C/C(=O)Nc1cccc(C(F)(F)c2nc(Nc3ccc(N4CCN(C)CC4)cc3)ncc2F)c1 [Compound 40] | 1.74 µM | 14.6 | 25.3 µM | – | – | – | – | –
14 | C=CC(=O)Nc1cccc(C(F)(F)c2nc(Nc3ccc(N4CCN(C)CC4)nc3)nc3[nH]ccc23)c1 [Compound 28b, N-(3-(difluoro(2-(6-(4-methylpiperazin-1-yl)pyridin-3-ylamino)-7H-pyrrolo[2,3-d]pyrimidin-4-yl)methyl)phenyl)acrylamide] | 0.026 µM | 466 | 12 µM | – | – | – | – | –
15 | C=CC(=O)Nc1cccc(C(F)(F)c2nc(Nc3ccc(N4CCN(C)CC4)c(F)c3)ncc2OC)c1 [Compound 34] | 0.038 µM | 113 | 4.37 µM | – | – | – | – | –
16 | C=CC(=O)Nc1cccc(C(F)(F)c2nc(Nc3ccc(N4CCN(C)CC4)cc3)ncc2OC)c1 [Compound 35] | 0.062 µM | 58.4 | 3.61 µM | – | – | – | – | –
17 | C=CC(=O)Nc1cccc(C(F)(F)c2nc(Nc3ccc(N4CCN(C)CC4)cc3OC)ncc2OC)c1 [Compound 63] | 0.03 µM | 974 | 28.8 µM | – | – | – | – | –
18 | C=CC(=O)Nc1cccc(C(F)(F)c2nc(Nc3ccc(N4CCN(C)CC4)cc3OC)nc3[nH]cnc23)c1 [Compound 13b, N-(3-(difluoro(2-(2-methoxy-4-(4-methylpiperazin-1-yl)phenylamino)-9H-purin-6-yl)methyl)phenyl)acrylamide] | 0.34 µM | 32 | 10.8 µM | – | > 20 µM | > 20 µM | 1.9 µM | 4.1 µM
19 | C/C=C/C(=O)Nc1cccc(C(F)(F)c2nc(Nc3ccc(N4CCN(CC)CC4)cc3)ncc2F)c1 [Compound 42] | 1.63 µM | 7.2 | 11.8 µM | – | – | – | – | –
20 | C=CC(=O)Nc1cccc(C(F)(F)c2nc(Nc3ccc(N4CCN(C)CC4)c(F)c3)ncc2F)c1 [Compound 36] | 0.093 µM | 23.3 | 2.17 µM | – | – | – | – | –
21 | C=CC(=O)Nc1cccc(C(F)(F)c2nc(Nc3ccc(N4CCN(C)CC4)cc3)nc3c2ccn3CO)c1 [Compound 27a, N-(3-(difluoro(7-(hydroxymethyl)-2-(4-(4-methylpiperazin-1-yl)phenylamino)-7H-pyrrolo[2,3-d]pyrimidin-4-yl)methyl)phenyl)acrylamide] | 0.058 µM | 403 | 23.4 µM | – | – | – | – | –

Reference: US11612602B2, “Heterocyclic compounds and uses as anticancer agents” (ACEA Therapeutics, Inc., priority 2012, dated 2023)
